The values below are quoted from earlier work in publication PMC13612640 (Cancer Chemotherapy and Pharmacology, 2026).

On the set-up of the series: method as in PMID 41165508.

As for `COc1ccc(F)cc1C(=O)NCc1ccc(-c2nn([C@@H](C)C(F)(F)F)c(N)c2C(N)=O)cc1` [pirtobrutinib], the “Plasma fraction unbound (fu)” value is 0.046.
